These are literature values, as cited in patent US20240342171A1, “DISCOVERY OF A F-ATP SYNTHASE INHIBITOR FOR THE TREATMENT OF MYCOBACTERIUM ABSCESSUS DISEASES” (priority 2021, published 2024).

Converted amounts (≈) assume the structure as drawn.

For one series, the system named is M. abscessus. The following applies: for mode of action against M. abscessus: background statement; for MIC of clinically used anti-M. abscessus drugs: Brown-Elliott et al. 2016.
The conditions of series [1]: mouse liver microsomes; Hotra et al. 2020. A general note: Microsomes from liver hold many membrane-bound enzymes, among them those of drug oxidation.
For series [2] the following is noted: Hotra et al. 2020.

Usually MIC50 stands for the lowest concentration that inhibits either 50% of growth or 50% of the strains tested, depending on the study. With `CC(C)/N=c1\cc2n(-c3ccc(Cl)cc3)c3ccccc3nc-2cc1Nc1ccc(Cl)cc1` [CFZ, clofazimine], the MIC50 in the series with M. abscessus (Ferro et al. 2016) is 6.8 µM (≈ 3.22 µg/mL). In addition, the “mode of action against M. abscessus” value in the series on M. abscessus was “mostly bacteriostatic”.
As to `COc1nc2ccc(Br)cc2cc1[C@@H](c1ccccc1)[C@@](O)(CCN(C)C)c1cccc2ccccc12` [BDQ, bedaquiline], the “mode of action against M. abscessus” value with M. abscessus is on record as “mostly bacteriostatic”.
Consider `CCNc1cc(C)nc(Nc2ccc(NC(=O)c3cccc(Br)c3)cc2)n1` [GaMF1], for which, in series [1], the metabolic stability result is listed as “good metabolic stability”. Also, in series [2], the “c log P” value is reported as 4.37.
Usually MIC stands for the lowest concentration found to suppress growth. Regarding `CO[C@H]1/C=C/O[C@@]2(C)Oc3c(C)c(O)c4c(c3C2=O)C2=NC3(CCN(CC(C)C)CC3)NC2=C(NC(=O)/C(C)=C\C=C\[C@H](C)[C@H](O)[C@@H](C)[C@@H](O)[C@@H](C)[C@H](OC(C)=O)[C@@H]1C)C4=O` [rifabutin], in the series on M. abscessus, the MIC was 1 to 4 µM.
In the case of `CO[C@@]1(NC(=O)Cc2cccs2)C(=O)N2C(C(=O)O)=C(COC(N)=O)CS[C@@H]21` [cefoxitin], the “MIC of clinically used anti-M. abscessus drugs” value in the series on M. abscessus (Ferro et al. 2016) is 38 µM.
Consider `NCC[C@H](O)C(=O)N[C@@H]1C[C@H](N)[C@@H](O[C@H]2O[C@H](CN)[C@@H](O)[C@H](O)[C@H]2O)[C@H](O)[C@H]1O[C@H]1O[C@H](CO)[C@@H](O)[C@H](N)[C@H]1O` [amikacin], for which the “MIC of clinically used anti-M. abscessus drugs” value in the series on M. abscessus (Ferro et al. 2016) is 55 µM.
On to `CO[C@@]1(NC(=O)Cc2cccs2)C(=O)N2C(C(=O)O)=C(COC(N)=O)CS[C@@H]21` [cefocetin], for which, in the series on M. abscessus ([…]), the “MIC50 of first line drugs” value was 43 µM.
With `COc1cc([C@](O)(CCN(C)C)[C@@H](c2cc3cc(Br)ccc3nc2OC)c2cc(OC)nc(OC)c2OC)cc(OC)n1` [TBAJ876], in the series with M. abscessus, the “mode of action against M. abscessus” value is on record as “mostly bacteriostatic”.
